Measurements reported in US12590950B2, “Methods for predicting ER-mediated DNA damage” (UNIVERSITY OF MASSACHUSETTS, priority 2019, dated 2026).

Experiments:
AREG and PGR [1] = test: RT-qPCR of endogenous ER target genes AREG and PGR in T47D and MCF-7 cell lines; format: cell-based, human; conditions: for induction of endogenous ER target genes AREG and PGR: 1 μM, T47D and MCF-7; for transcription by endogenous gene expression: 5 μM BP3, 1 μM PP
TFF1 = test: RT-qPCR of estrogen-responsive gene TFF1 in T47D cells; format: cell-based, human; conditions: T47D; for expression of TFF1 vs control: 5 μM
Experimental: (§1) RT-qPCR: RNA from T47D cells, MCF-7 Cells or flash-frozen 4th mammary gland was isolated with TRIzol (Thermofisher Scientific #15596018) and Direct-zol RNA MiniPrep Plus (Zymo Research #R2072). cDNA was prepared with Protoscript II First Strand cDNA Synthesis Kit (New England Biolabs #E6560S) and qPCR for TFF1, progesterone receptor (PGR) and Amphiregulin (AREG) was performed on CFX96 Real-Time System thermocycler (Bio-Rad) using primers in Table 1.

[2] = development and reproductive toxicity assays; cited from earlier work
[3] = Acute oral exposure of ovariectomized mice: uterine weight; format: in vivo, mouse; conditions: 4 days, BP3 3000, PP 10000 μg/kg/d
Description: (§2) Animal Treatment: Forty mature female mice (8 weeks old) BALB/c mice were purchased from Jackson Laboratory and housed in temperature-controlled facilities with a 12-hour alternating day/night light cycle and fed LabChow 5058 ad libitum. All procedures were in accordance with the national guidelines for the care and use of animals and approved by the University of Massachusetts Amherst's Institutional Animal Care and Use Committee.
(§3) The mice were ovariectomized before treatment. Briefly, each mouse was anaesthetized with a mix of isofluorance and oxygen. The flanks were shaved, sterilized with betadine and cleaned with alcohol. An incision was made to the skin on the right flank. The underlying muscle layer was nicked to reveal a small hole through which ovary was pulled out by grasping the periovarian fat. A Serrifin clamp was used to hold the ovary. After making sure the blood vessels were constricted to prevent […], the ovary was cut from the uterine horn. The periovarian fat was restored into the peritoneum. The peritoneum was closed with one or two stiches and the skin was closed with 9 mm wound clips. The procedure was repeated on the contralateral side. The mouse was monitored for a week post-procedure and wound clips were removed after 10 days. […]

Areg and Pgr [4] = test: Acute oral exposure of ovariectomized mice: Areg and Pgr expression in mammary gland; format: in vivo, mouse; conditions: 4 days, E2 250, BP3 3,000, PP 10,000 μg/kg/day
Experimental: as §1, §2
as §3, with “days. After 1 week of recovery, the mice began an acute oral treatment via pipette with one of three different compounds prepared in tocopherol-stripped corn oil for 4 days. Each mouse was administered 1 μL of oil per gram of body weight to deliver 250 μg/kg/d E2, 3000 μg/kg/d BP3 or 10000 μg/kg/d PP or vehicle control.” for “days.”

[5] = test system: parental 76N-tert cell line; test: S9.6 immunostaining (R-loops) in parental 76N-tert cells without ERα; format: cell-based, human; conditions: no ERα
Experimental: Generation of 76N-Tert-ESR1 cells: The 76N-Tert cell line, a human mammary epithelial cell line immortalized with expression of human telomerase reverse transcriptase (TERT) was provided (35). These cells were grown in F-media (250 mL DMEM (-pyruvate) (Gibco #11965-092), 250 mL Ham's F12 (Gibco #11765-054), 5% FBS, 250 ng/mL hydrocortisone (Sigma #H4001), 10 ng/mL human epidermal growth factor (Tonbo Biosciences #21-8356-U100), 8.6 ng/mL cholera toxin vibrio (Millipore Sigma #227035), 1 μg/mL human insulin solution, and 1× antibiotic-antimycotic and passaged every 2-3 days.
(§4) Immunostaining: Cells were grown in clearing media for 48 h and plated on 20 mm coverslip in 12 well plates with a density of 2×10^5 cells/well. After 24 h of growth, cells were treated with 10 nM E2, 1 or 5 μM BP3, and 1 or 5 μM PP with or without 1 μM fulvestrant. γH2AX/ERα: Cells were fixed in ice-cold methanol (100%) for 10 mins and quenched with 0.1 M Glycine for 15 mins. Cells were washed with 1×PBS, blocked in 2% BSA/PBS with 0.1% Triton-X 100 for 1 hr at room temperature (RT), incubated overnight with γH2AX antibody (Cell Signaling #9718 S) or ERα antibody (Santa Cruz Biotechnology #sc-8002) at 4° C. and 1 hour with secondary antibody. S9.6: Cells were fixed in ice-cold 100% methanol for 10 min at −20° C., permeabilized in 100% acetone for 1 min at RT, blocked for 30 min in saline sodium citrate pH 7 (SSC, 4×), 3% BSA, 0.1% Triton-X and incubated with S9.6 (Kerafast #ENH001) 2 hr at RT followed by 1 h with secondary antibody. If indicated, slides were treated with RNase H (NEB #M0297L) for 4 hr at 37° C. prior to incubation with primary antibody. Stained cells were mounted with Vectashield mounting medium containing DAPI (Vector Laboratories #H-1200). Slides were imaged at 60× (immersion oil) with Nikon A1 Spectral Confocal microscope. Analysis of γH2AX and S9.6 intensity per nucleus or foci per nucleus was calculated using Nikon analysis software, where DAPI was used as a mask for the nucleus.

T47D cells = test: S9.6 immunostaining (R-loops) in T47D cells; format: cell-based, human; conditions: 5 μM, vs vehicle-treated control
Experimental: as §4, with “Slides were imaged at 60× (immersion oil) with Nikon A1 Spectral Confocal microscope.” left out

Structure (SMILES)	concentration at which transcriptional response is observed (AREG and PGR [1])	induction of endogenous ER target genes AREG and PGR (AREG and PGR [1])	transcription by endogenous gene expression (AREG and PGR [1])	expression of TFF1 vs control (TFF1)	no-adverse-effect-level (NOAEL) dose [2]	uterine weights compared to the control treatment [3]	transcriptional activation of ER-target genes (Areg and Pgr) (Areg and Pgr [4])	nuclear S9.6 staining [5]	nuclear S9.6 foci (R-loops) (T47D cells)	increase in expression of TFF1 (TFF1; 10 nM)
COc1ccc(C(=O)c2ccccc2)c(O)c1 [BP3, 2-Hydroxy-4-methoxybenzophenone]	greater than 5 μM	poor agonists	no significant increase in transcription	did not differ from the control	3000 µg/kg/day	not sufficient	neither BP3 nor PP elicited significant responses	low nuclear S9.6 staining	significantly higher	–
C[C@]12CC[C@@H]3c4ccc(O)cc4CC[C@H]3[C@@H]1CC[C@@H]2O [E2, 17β-estradiol, reference compound]	–	–	–	–	–	–	stimulated	low nuclear S9.6 staining	–	13.1 fold
CCCOC(=O)c1ccc(O)cc1 [PP, propyl parahydroxybenzoate]	greater than 5 μM	poor agonists	no significant increase in transcription	did not differ from the control	10000 µg/kg/day	not sufficient	neither BP3 nor PP elicited significant responses	low nuclear S9.6 staining	significantly higher	–
